Counter-ions that a name gives are not always drawn. Like-named read-outs stand apart in the source and are kept apart here.
How the values were obtained:
Mouse = details: cited from earlier work
Rat = details: cited from earlier work
[1] = Non-hygroscopicity test (stability chambers, water content by Karl Fischer method); format: physicochemical; details: for Final Moisture Content After 24hrs / Initial Moisture Content: Karl Fischer; for hygroscopic properties: assessment in words, comparable to α and β forms of imatinib mesylate; for Initial Moisture Content: before storage in stability chamber
Experimental: The water contents were measured by a well known method, namely Karl Fischer method for determining water quantities.

Quail = details: Oral; cited from earlier work
Rabbit = details: cited from earlier work

Structure (SMILES): CCCCCCCC/C=C\CCCCCCCC(=O)O [Oleic acid]
- LD50 (Mouse; Intraperitoneal, Mouse): 282 mg/kg
- LD50 (Mouse; Intravenous, Mouse): 230 mg/kg
- LD50 (Rat; Oral, Rat): 74000 mg/kg

Structure (SMILES): Cc1ccc(NC(=O)c2ccc(CN3CCN(C)CC3)cc2)cc1Nc1nccc(-c2cccnc2)n1 [Imatinib Oxalate, 4-[(4-Methyl-1-piperazinyl)methyl]-N-[4-methyl-3-[[4-(3-pyridinyl) -2-pyrimidinyl]amino]phenyl]-benzamide, oxalate]
- Final Moisture Content After 24hrs ([1]; 25°C at humidity of 60%): 3.4%
- Final Moisture Content After 24hrs ([1]; 40 °C at humidity of 75%): 3.6%
- hygroscopic properties [1]: considerably low hygroscopic
- Initial Moisture Content [1]: 1.6%

Structure (SMILES): CS(=O)(=O)O [Methanesulfonic acid, reference compound]
- LD50 (Quail): 1000 mg/kg
- LD50 (Rat; rat, in vivo, po): 200 mg/kg

Structure (SMILES): CCCCCCCCCCCC(=O)O [Lauric acid]
- LD50 (Mouse; mouse, in vivo, iv): 131 mg/kg
- LD50 (Rat; Oral, Rat): 12000 mg/kg

Structure (SMILES): CC1(C)C2CCC1(CS(=O)(=O)O)C(=O)C2 (stereo not drawn) [Camphor sulfonic acid]
- LD50 (Mouse; Subcutaneous, Mouse): 2502 mg/kg

Structure (SMILES): Cc1ccc(S(=O)(=O)O)cc1 [p-Toluene sulfonic acid]
- LD50 (Mouse; Oral, Mouse): 400 mg/kg
- LD50 (Rat; Oral, Rat): 2480 mg/kg

Structure (SMILES): O=C(O)c1cc(=O)[nH]c(=O)[nH]1 [Orotic acid]
- LD50 (Mouse; mouse, in vivo, ip): 841 mg/kg
- LD50 (Mouse; mouse, in vivo, iv): 770 mg/kg
- LD50 (Mouse; mouse, in vivo, po): 2000 mg/kg

Structure (SMILES): O=C(O)Cc1ccccc1 [Phenyl acetic acid]
- LD50 (Rat; Intraperitoneal, Rat): 1600 mg/kg
- LD50 (Rat; Oral, Rat): 2250 mg/kg

Structure (SMILES): Cc1ccc(NC(=O)c2ccc(CN3CCN(C)CC3)cc2)cc1Nc1nccc(-c2cccnc2)n1.O=C(O)c1cc(=O)[nH]c(=O)[nH]1 [Imatinib Orotate, 4-[(4-Methyl-1-piperazinyl)methyl]-N-[4-methyl-3-[[4-(3-pyridinyl)-2-pyrimidinyl]amino]phenyl]-benzamide, orotate]
- Final Moisture Content After 24hrs ([1]; 25°C at humidity of 60%): 0.7%
- Final Moisture Content After 24hrs ([1]; 40 °C at humidity of 75%): 0.7%
- hygroscopic properties [1]: considerably low hygroscopic
- Initial Moisture Content [1]: 0.4%

Structure (SMILES): CCCCCCCCCC(=O)O [Capric acid]
- LD50 (Rabbit; Oral): 1770 mg/kg
- LD50 (Rat; Oral, Rat): 3730 mg/kg

Structure (SMILES): N[C@@H](CC(=O)O)C(=O)O [Aspartic acid]
- LD50 (Rabbit; Skin): 5000 mg/kg
- LD50 (Rat; Oral, Rat): 5000 mg/kg

From EP2062885A1, “Acid addition salts of imatinib and formulations comprising the same” (priority 2007, dated 2009)
